A short description of data set [1]: Cell-free CBA assay with 10 μM H2O2 (H2O2 scavenging). The note with it: 10 μM H2O2, 800 μM CBA.
A further data set has as its target T1, human NOX4 (Homo sapiens, UniProt Q9NPH5).
T1 sequence (Q9NPH5 1-578): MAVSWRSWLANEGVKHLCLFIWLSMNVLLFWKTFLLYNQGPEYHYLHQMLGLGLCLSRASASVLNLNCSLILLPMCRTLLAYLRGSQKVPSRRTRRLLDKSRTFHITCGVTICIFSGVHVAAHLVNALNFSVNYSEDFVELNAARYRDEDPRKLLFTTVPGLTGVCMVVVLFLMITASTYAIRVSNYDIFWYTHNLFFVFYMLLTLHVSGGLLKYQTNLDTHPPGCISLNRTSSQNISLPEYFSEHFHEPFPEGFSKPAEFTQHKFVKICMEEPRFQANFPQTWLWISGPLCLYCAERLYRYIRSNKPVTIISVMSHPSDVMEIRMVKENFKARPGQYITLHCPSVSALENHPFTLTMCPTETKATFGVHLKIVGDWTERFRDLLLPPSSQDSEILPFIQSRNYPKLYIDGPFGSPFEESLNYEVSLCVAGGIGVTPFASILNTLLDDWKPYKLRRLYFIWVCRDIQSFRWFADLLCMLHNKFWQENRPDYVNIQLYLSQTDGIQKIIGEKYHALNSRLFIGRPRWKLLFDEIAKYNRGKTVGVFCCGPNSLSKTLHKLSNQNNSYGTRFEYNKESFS
T1 sequence (P13498 1-195 partner): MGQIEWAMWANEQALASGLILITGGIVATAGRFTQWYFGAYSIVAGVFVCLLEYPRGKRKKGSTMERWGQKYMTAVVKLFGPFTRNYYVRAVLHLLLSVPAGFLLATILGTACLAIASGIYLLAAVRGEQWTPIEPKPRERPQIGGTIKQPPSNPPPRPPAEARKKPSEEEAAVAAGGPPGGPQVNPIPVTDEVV
Put plainly: Amplex Red/HRP H2O2 detection in tetracycline-induced NOX4 HEK293 T-REx cells.

Another data set in a line: in vitro. The note with it: Chinese hamster.
The target of the next data set is T2, NOX5 (Homo sapiens, UniProt Q96PH1).
T2 construct: expressed in transfected cells
T2 sequence (Q96PH1 19-737 isoform Q96PH1-3 limits assumed): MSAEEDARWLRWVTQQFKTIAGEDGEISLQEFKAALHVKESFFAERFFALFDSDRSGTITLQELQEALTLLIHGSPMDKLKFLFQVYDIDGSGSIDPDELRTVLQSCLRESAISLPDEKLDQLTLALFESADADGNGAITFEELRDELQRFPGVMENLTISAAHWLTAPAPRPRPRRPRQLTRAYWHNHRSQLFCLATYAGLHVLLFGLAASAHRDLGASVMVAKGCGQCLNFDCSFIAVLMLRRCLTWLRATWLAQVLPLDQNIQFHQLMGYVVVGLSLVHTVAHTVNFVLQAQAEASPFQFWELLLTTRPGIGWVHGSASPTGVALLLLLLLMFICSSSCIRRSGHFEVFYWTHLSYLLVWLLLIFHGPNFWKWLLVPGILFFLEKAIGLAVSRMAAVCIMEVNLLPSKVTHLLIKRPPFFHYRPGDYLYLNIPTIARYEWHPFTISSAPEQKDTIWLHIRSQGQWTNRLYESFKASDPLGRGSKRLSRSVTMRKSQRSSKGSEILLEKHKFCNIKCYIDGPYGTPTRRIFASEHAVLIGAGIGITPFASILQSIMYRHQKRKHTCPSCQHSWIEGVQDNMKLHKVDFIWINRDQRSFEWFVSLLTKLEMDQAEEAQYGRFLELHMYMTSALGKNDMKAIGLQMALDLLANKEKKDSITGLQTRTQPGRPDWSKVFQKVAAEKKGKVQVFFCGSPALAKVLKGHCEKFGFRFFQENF
Put plainly: WST-1 O2•- detection in NOX5-expressing HEK293 cells. Type of data set: cell-based. The note with it: WST-1, PMA 0.1 μM and ionomycin 1 μM; read-out: IC50 NOX5 (HEK) WST-1. (In general: Formazan colour is commonly taken as a measure of viable cells.)

The next data set concerns the target T3, NOX2 (Homo sapiens, UniProt P04839).
T3 sequence (P04839 2-570 limits assumed): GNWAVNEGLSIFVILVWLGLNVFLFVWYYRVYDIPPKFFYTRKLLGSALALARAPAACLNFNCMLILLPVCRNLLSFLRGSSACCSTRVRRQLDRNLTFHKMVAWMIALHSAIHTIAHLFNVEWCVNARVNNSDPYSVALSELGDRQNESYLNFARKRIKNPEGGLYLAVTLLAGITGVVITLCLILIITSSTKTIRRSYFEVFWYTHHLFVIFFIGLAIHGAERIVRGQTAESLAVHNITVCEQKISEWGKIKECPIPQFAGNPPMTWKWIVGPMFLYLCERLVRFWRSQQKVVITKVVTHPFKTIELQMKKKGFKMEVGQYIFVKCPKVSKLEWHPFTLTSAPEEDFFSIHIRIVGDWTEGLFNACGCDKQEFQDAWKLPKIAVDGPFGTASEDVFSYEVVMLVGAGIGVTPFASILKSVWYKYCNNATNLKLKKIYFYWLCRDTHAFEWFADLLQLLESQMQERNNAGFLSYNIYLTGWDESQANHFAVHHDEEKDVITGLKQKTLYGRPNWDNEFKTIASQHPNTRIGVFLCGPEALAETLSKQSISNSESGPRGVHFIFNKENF
T3 sequence (P13498 1-195 partner): T1 sequence (P13498 1-195 partner)
Put plainly: Amplex Red/HRP H2O2 detection in differentiated PLB-985 cells (NOX2).

Description for in vitro: The effect of the compounds on cell viability was obtained using the Calcein-AM assay. […] Cells suspensions were prepared in HBSS. Cells were preincubated at 50,000 cells/well with compounds for 10 min at room temperature before addition of 4 μM Calcein-AM. Then the plate was incubated at 37 °C for 1 h in the dark. Intracellular Calcein fluorescence was measured using Spectramax Paradigm (Molecular Devices) at 485 nm excitation and 520 nm emission.

As for `COc1cc(C(C)=O)cc(-c2cc(C(C)=O)cc(OC)c2O)c1O` [Diapocynin, diapocynin], the “Effect on CBA signal (direct scavenging of H2O2)” value (“Effect on CBA signal” for short) in data set [1] (serial dilutions) was “inactive”. Further, the IC50 is more than 50 µM on human NOX4, more than 50 µM at NOX5 and 38.9 µM against NOX2. Moreover, the CC50 at 1 h in “in vitro” (CHO cells) was more than 50 µM.

On to `Cc1c2c(=O)n(-c3ccccc3Cl)[nH]c2cc(=O)n1Cc1ccccn1` [GKT136901], for which the “Effect on CBA signal” value in data set [1] (serial dilutions) is given as “not scavenging H2O2”. Besides, the figures for the IC50 at human NOX4, on NOX5 and against NOX2 were 2.7 µM, more than 50 µM and 12.2 µM, respectively. Also, in the data set “in vitro” (CHO cells), the CC50 at 1 h is more than 50 µM.

For `COc1cc(C(C)=O)ccc1O` [Apocynin, apocynin], in data set [1] (at high concentration), the “Effect on CBA signal” value is “inhibited the CBA signal”. The IC50 against human NOX4, at NOX5 and against NOX2 was more than 50 µM throughout. Moreover, the CC50 at 1 h in “in vitro” is more than 50 µM.

With `O=c1c2ccccc2[se]n1-c1ccccc1` [Ebselen, ebselen], in data set [1] (serial dilutions), the “Effect on CBA signal” value was “inhibited the CBA signal”. Further, at human NOX4, the IC50 turned out to be 4.1 µM. Also, in “in vitro” (CHO cells), the CC50 at 1 h came out at 3.3 µM.

Compound `c1ccc2c(c1)[I+]c1ccccc1-2` [DPI, diphenylene iodonium chloride] displayed a CC50 at 1 h in “in vitro” of more than 50 µM.

As usually defined, the IC50 is the concentration that inhibits the measured activity by half.

For the origin of these results see article PMC6658998, “Pharmacological characterization of the seven human NOX isoforms and their inhibitors” (Redox Biology, 2019).
